Measurements: publication PMC9325719 (Nature Communications, 2022)

Biological target: Na+-NQR (Na+-pumping NADH-ubiquinone oxidoreductase), inhibitor site at NqrB N-terminal region (Vibrio cholerae, UniProt A5F5X0, E157A)
Settings: substrates NADH and ubiquinone-1; 50% inhibition not reached at highest concentration; mutant activity 50-60% lower than wild type

CCCCCCCC[C@H]1O[C@H]1C/C=C/C=C/[C@H](O)CC(=O)NC1=C[C@](C)(CC)OC1=O [korormicin A]
IC50: > 2000 nM
